Measured values from patent publication US20250025435A1, “CO-CRYSTALS OF NONSTEROIDAL ANTI-INFLAMMATORY DRUGS, LYSINE AND GABAPENTIN, PHARMACEUTICAL COMPOSITIONS AND THEIR MEDICAL USE” (DOMPE' FARMACEUTICI SPA, priority 2021, published 2025).

How the values were obtained:
[1] = system: mechanical allodynia in carrageenan-injected rats; experiment: Mechanical allodynia (von Frey, up and down method) in rat carrageenan-induced paw edema model; assay type: in vivo, Male Wistar rats; settings: 3 h post-carrageenan; ipsilateral paw; n=8; vehicle 8.25±1.61 g, baseline 80±7.56 g
[2] = system: carrageenan-induced rat paw edema; experiment: Carrageenan-induced rat paw edema test; assay type: in vivo, Male Wistar rats; settings: for volume reduction of paw edema in rats (%): vs vehicle-treated group, single oral dose; for paw thickness: mean±SEM, n=8, vehicle 9.55±0.47 mm
[3] = set-up: species or system Sprague Dawley male rat; settings: rat, in vivo, po
Source text: Sprague Dawley male rat (body weights 310 gr at the time of the treatment) were used in this study. The animals were originally supplied by Harlan, Italy. Once receipt from the supplier, the animals were subjected to health examinations and acceptance. The animals were housed, in a group of three, in cages suitable for the species and were routinely kept in the following environment except for short periods of time where experimental procedures dictated otherwise. The animals were acclimatized to local housing conditions for approximately 5 days. The animals were housed in a single, exclusive room, air conditioned to provide a minimum of 15 air changes/hour. The environmental controls were set to maintain temperature within the range 22° C. and relative humidity within the range 50 to 60% with an approximate 12 hour light and 12 hour dark cycle that is controlled automatically. Food (Mucedola Standard GLP diet) and water were available ad libitum throughout the study. All animals were weighed on the day of each treatment. Clinical signs were monitored at regular intervals throughout the study in order to assess any reaction to treatment. Each animal was uniquely identified with a coloured spray on the back before the experiment. At the end of the study animals were sacrificed by exsanguination under anaesthesia. […]

[4] = cited from earlier work

Compound	paw withdrawal threshold [1] [g]	volume reduction of paw edema in rats (%) ([2]; 1 h post-carrageenan)	volume reduction of paw edema in rats (%) ([2]; 3 h post-carrageenan)	paw thickness ([2]; 5 h post-carrageenan) [mm]	volume reduction of paw edema in rats (%) ([2]; 5 h post-carrageenan)	Cmax (ng/mL) Flurbiprofen [3] [ng/mL]	Cmax (ng/mL) Gabapentin [3] [ng/mL]	time to utmost level in plasma ([4]; after oral administration (Quintero 2017)) [h]	excretion half-life ([4]; expelled by the renal system)
CC(C(=O)O)c1ccc(-c2ccccc2)c(F)c1 (stereo not drawn) [Flurbiprofen]	44.62 ± 14.43	−18.20	−31.50	6.5±0.28	−32.0				
Flurbiprofen-Lysine-Gabapentin [Flur/Lys/Gaba]	85.75 ± 9.86	−21.80	−39.91	5.51±0.42	−42.27	14725 ± 1267	3008 ± 246		
NCC1(CC(=O)O)CCCCC1 [Gabapentin]	66.5 ± 11	−1.93	−16.21	7.45±0.26	−17.27			3 to 4	roughly 6 hours
COc1ccc2c(c1)c(CC(=O)O)c(C)n2C(=O)c1ccc(Cl)cc1 [Indomethacin]	36 ± 7.21	−17.68	−35.27	5.69±0.27	−40.45				
